Results on two compounds are retold here after patent US12594344B2, “Production of exosomes and uses thereof” (CHINA MEDICAL UNIVERSITY, priority 2021, dated 2026).

One assay concerns MDA-MB-231 cells. The assay can be described thus: Cytotoxicity of exosomes loaded with miRNA and DOX. It is filed as cell-based. The note with it: MDA-MB-231, after 24 h and 48 h. On the procedure: The cell cultured on 96-well with Exo/CARExo for the collection of different time-points, the culture medium was collected and washed with PBS solution to remove any residual medium. Tetrazolium dye MTT (3-(4,5-dimethylthiazol-2-yl)-2,5-diphenyltetrazolium bromide) (Sigma-Aldrich) was mixed fresh medium with ratio of 1:9 and performed to assess for cell viability, which worked by acting on the respiratory chain. After 3 h of reaction, the MTT agent was removed and DMSO was added and left aside for 20 min to dissolve the formazan crystals and redistributed evenly into a 96-well. Absorbance was quantified by measuring at a wavelength of 570 nm to assess for cell viability.
Then, the present invention further increased the test group to six groups: Ctl, Drug, miR, CARExo, CARExo-Drug and CARExo-miR-Drug, to distinguish the validation of cancer cell killing efficacy (FIG. 10). […] Whereas CARExo or Drug only the effect was about 50%. It could be seen that the cocktail of exosomes can effectively and quickly kill cancer cells in the first time.

A further assay has as its target T1, YAP protein (Homo sapiens, UniProt P46937).
T1 construct: endogenous in cells; host or cells: HEK293T
Nature of the assay: YAP inhibitor treatment of HEK293T-laden auxetic scaffold under cyclic tensile stimulation. It is filed as cell-based. The text has this: In the present invention, hydrogels with an auxetic structure were fabricated through a template moulding process. Considering that the cell-laden hydrogels with an auxetic structure should be compatible with a tensile bioreactor, three components were used to produce the construct: a Pluronic F-127 solution, GelMa, and cell-laden FGelMa. A positive mould was designed and printed using the BioX bioprinter (Cellink, Sweden) with the Pluronic F-127 (Sigma-Aldrich) solution at a concentration of 30 wt % in distilled water. […] For the mould printing, the stereolithography (STL) model was designed and developed using SolidWorks. The STL file was then converted into a g-code file, which was used to determine the movements and printing paths of the bioprinter, using sliver software. After housing the fugitive ink in a syringe barrel equipped with a luer-locked nozzle with an inner diameter of 150 μm, the fugitive ink was deposited on a glass slide by applying a pneumatic pressure at 170 kPa to form a filament with diameter of approximately 250 μm, using a syringe moving speed of 25 mm/s. The fugitive mould of the auxetic construct was fabricated layer-by-layer (150 μm per layer) until the final thickness of the construct reached 2.1 mm. […]

T1 sequence (P46937 whole entry): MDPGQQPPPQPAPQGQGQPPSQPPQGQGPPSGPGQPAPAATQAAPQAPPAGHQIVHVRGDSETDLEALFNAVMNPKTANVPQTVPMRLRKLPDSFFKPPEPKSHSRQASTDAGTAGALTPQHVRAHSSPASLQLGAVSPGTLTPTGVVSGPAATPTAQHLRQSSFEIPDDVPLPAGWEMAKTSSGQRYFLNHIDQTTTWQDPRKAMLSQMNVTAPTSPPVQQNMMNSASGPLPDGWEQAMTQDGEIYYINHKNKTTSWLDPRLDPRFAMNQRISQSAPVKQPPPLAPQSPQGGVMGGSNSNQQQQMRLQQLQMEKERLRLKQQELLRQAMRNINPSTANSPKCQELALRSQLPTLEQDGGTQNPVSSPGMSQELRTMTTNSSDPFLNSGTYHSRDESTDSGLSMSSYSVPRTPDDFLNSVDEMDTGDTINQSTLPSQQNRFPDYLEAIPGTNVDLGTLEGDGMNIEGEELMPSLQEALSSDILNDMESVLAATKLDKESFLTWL

`COc1cccc2c1C(=O)c1c(O)c3c(c(O)c1C2=O)C[C@@](O)(C(=O)CO)C[C@@H]3O[C@H]1C[C@H](N)[C@H](O)[C@H](C)O1` [Drug, doxorubicin]: in the assay on MDA-MB-231 cells, the cell killing effect result is recorded as “about 50%”.

As to Verteporfin, on YAP protein, the cell morphology entry is given as “could not self-assemble to form three-dimensional spheroids” and the “secretion of exosomes relative to the cyclic tensile stimulation group” value is listed as 5%.
